Bounds are passed on as bounds.

The target of the first assay is T1, hDGAT1 (Homo sapiens, UniProt O75907).
T1 sequence (O75907 1-488): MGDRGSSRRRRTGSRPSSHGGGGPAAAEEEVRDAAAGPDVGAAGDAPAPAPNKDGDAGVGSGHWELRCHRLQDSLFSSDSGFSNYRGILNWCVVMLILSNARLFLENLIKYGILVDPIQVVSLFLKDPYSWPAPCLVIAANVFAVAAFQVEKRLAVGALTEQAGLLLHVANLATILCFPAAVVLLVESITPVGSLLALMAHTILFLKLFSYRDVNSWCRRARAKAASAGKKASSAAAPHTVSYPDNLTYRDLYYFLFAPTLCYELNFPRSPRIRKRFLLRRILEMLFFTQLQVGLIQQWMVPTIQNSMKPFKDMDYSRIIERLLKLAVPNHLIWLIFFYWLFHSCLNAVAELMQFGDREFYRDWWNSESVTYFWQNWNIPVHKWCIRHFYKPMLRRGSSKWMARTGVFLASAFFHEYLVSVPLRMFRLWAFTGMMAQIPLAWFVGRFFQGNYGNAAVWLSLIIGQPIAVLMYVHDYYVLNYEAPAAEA
Nature of the assay: In-vitro DGAT1 assay (14C oleoyl CoA, hDGAT1 microsomes from Sf9 cells). To be noted: at 1 μM.
Protocol: Sf9 cells were seeded in spinner flasks on day 0 at a cell density of 1×10^6 and infected on day 1 with hDGAT1 baculovirus at a multiplicity of infection (MOI) of 5 and a cell density of 2×10^6. On day 3 (or 66-72 h), cells were harvested and centrifuged at 2500×g for 10 min. Pellet was resuspended in lysis buffer (100 mM sucrose, 50 mM KCl, 40 mM KH2PO4, 30 mM EDTA, pH 7.2) and passed through 21-gauge needle approximately 10 times. […] The supernatant was subjected to centrifugation at 35,000 rpm in a Beckman Ti-45 rotor at 4° C. for 1 h. The resultant pellet containing the microsomes wasere resuspended overnight in 1 mL of lysis buffer and total protein concentration was estimated using Bradford Reagent. Microsomes were aliquoted and stored at −80° C.
Frozen aliquots of hDGAT1 containing microsomes were thawed (5-10 mg/mL total protein) on ice and diluted to a working stock of 1 mg/mL with DGAT Assay Buffer (DAB).
The assay was performed in duplicates in a reaction volume of 100 μL. […] Procedure:
The reaction was started by the addition of 2.5 μL of 1 mg/mL of microsomes (iv) to the mixture and incubated at 37° C. for 10 min. […] The mixture was vortexed and the triglycerides formed were extracted into the organic heptane phase.
Turning to `CC(C)[C@@H](C(=O)O)N1Cc2ccc(-c3ccc(NC(=O)C4C5CC6CC(C5)CC4C6)cc3)cc2C1=O` (stereo partly drawn) [Example 190, (S)-2-(6-(4-(Adamantyl-2-carboxamido)phenyl)-1-oxoisoindolin-2-yl)-3-methylbutanoic acid], the “% Inhibition of hDGAT1” value was “++ (>50% Inhibition)”.

The assay is the same for the next values; noted with them: read-out: % Inhibition of hDGAT1.
Usually inhibition stands for the change of the read-out against control, counted positive when it falls. As to `CC(C)[C@@H](C(=O)O)N1Cc2ccc(-c3ccc(NC(=O)c4ccc(OC(F)(F)F)cc4)cc3)cc2C1=O` [Example 158, (S)-3-Methyl-2-(1-oxo-6-(4-(4-(trifluoromethoxy)benzamido)phenyl)isoindolin-2-yl)butanoic acid], the inhibition at 1 µM was above 50%. Same read-out and setting: with `COc1ccccc1C(=O)Nc1ccc(-c2ccc3c(c2)C(=O)N([C@H](C(=O)O)C(C)C)C3)cc1` [Example 160, (S)-2-(6-(4-(2-Methoxybenzamido)phenyl)-1-oxoisoindolin-2-yl)-3-methyl butanoic acid] the figure was above 50%; with `Cc1cc(C(=O)Nc2ccc(-c3ccc4c(c3)C(=O)N([C@H](C(=O)O)C(C)C)C4)cc2)ccc1F` [Example 162, (S)-2-(6-(4-(4-Fluoro-3-methylbenzamido)phenyl)-1-oxoisoindolin-2-yl)-3-methyl butanoic acid], above 50%; with `CCCCc1ccc(C(=O)Nc2ccc(-c3ccc4c(c3)C(=O)N([C@H](C(=O)O)C(C)C)C4)cc2)cc1` [Example 164, (S)-2-(6-(4-(4-Butylbenzamido)phenyl)-1-oxoisoindolin-2-yl)-3-methylbutanoic acid], above 50%. The same measure, in the same setting: the value for `Cc1ccc(F)c(C(=O)Nc2ccc(-c3ccc4c(c3)C(=O)N([C@H](C(=O)O)C(C)C)C4)cc2)c1F` [Example 166, (S)-2-(6-(4-(2,6-Difluoro-3-methylbenzamido)phenyl)-1-oxoisoindolin-2-yl)-3-methylbutanoic acid] was above 50%.

For `CCc1ccc(C(=O)Nc2ccc(-c3ccc4c(c3)C(=O)N([C@H](C(=O)O)C(C)C)C4)cc2)cc1` [Example 168, (S)-2-(6-(4-(4-Ethylbenzamido)phenyl)-1-oxoisoindolin-2-yl)-3-methylbutanoic acid], the inhibition at 1 µM was above 50%. For `CCCCCCCCc1ccc(C(=O)Nc2ccc(-c3ccc4c(c3)C(=O)N([C@H](C(=O)O)C(C)C)C4)cc2)cc1` [Example 172, (S)-3-Methyl-2-(6-(4-(4-octylbenzamido)phenyl)-1-oxoisoindolin-2-yl)butanoic acid], the inhibition at 1 µM was above 50%. On the same count and under the same terms, with `CC(C)[C@@H](C(=O)O)N1Cc2ccc(-c3ccc(NC(=O)c4ccc(C5CCCCC5)cc4)cc3)cc2C1=O` [Example 174, (S)-2-(6-(4-(4-Cyclohexylbenzamido)phenyl)-1-oxoisoindolin-2-yl)-3-methyl butanoic acid] the figure was above 50%; with `CC(C)[C@@H](C(=O)O)N1Cc2ccc(-c3ccc(NC(=O)c4ccc5c(c4)C(C)(C)CCC5(C)C)cc3)cc2C1=O` [Example 176, (S)-3-Methyl-2-(1-oxo-6-(4-(5,5,8,8-tetramethyl-5,6,7,8-tetrahydronaphthalene-2-carboxamido)phenyl)isoindolin-2-yl)butanoic acid], above 50%; with `CC(C)[C@@H](C(=O)O)N1Cc2ccc(-c3ccc(NC(=O)c4cccc5ccccc45)cc3)cc2C1=O` [Example 178, (S)-2-(6-(4-(1-Naphthamido)phenyl)-1-oxoisoindolin-2-yl)-3-methylbutanoic acid], 10 to 50%.

As for `COc1ccc(OC)c(C(=O)Nc2ccc(-c3ccc4c(c3)C(=O)N([C@H](C(=O)O)C(C)C)C4)cc2)c1` [Example 180, (S)-2-(6-(4-(3,6-Dimethoxybenzamido)phenyl)-1-oxoisoindolin-2-yl)-3-methyl butanoic acid], the inhibition at 1 µM is above 50%. Still for that read-out and setting: with `CCCCCCc1ccc(C(=O)Nc2ccc(-c3ccc4c(c3)C(=O)N([C@H](C(=O)O)C(C)C)C4)cc2)cc1` [Example 182, (S)-2-(6-(4-(4-Hexylbenzamido)phenyl)-1-oxoisoindolin-2-yl)-3-methylbutanoic acid] the figure was above 50%; with `CCCCCCCc1ccc(C(=O)Nc2ccc(-c3ccc4c(c3)C(=O)N([C@H](C(=O)O)C(C)C)C4)cc2)cc1` [Example 184, (S)-2-(6-(4-(4-Heptylbenzamido)phenyl)-1-oxoisoindolin-2-yl)-3-methylbutanoic acid], above 50%. On the same count and under the same terms, with `CCCCCCCCCc1ccc(C(=O)Nc2ccc(-c3ccc4c(c3)C(=O)N([C@H](C(=O)O)C(C)C)C4)cc2)cc1` [Example 186, (S)-3-Methyl-2-(6-(4-(4-nonylbenzamido)phenyl)-1-oxoisoindolin-2-yl)butanoic acid] the figure was above 50%; with `CCCCCCCCCCc1ccc(C(=O)Nc2ccc(-c3ccc4c(c3)C(=O)N([C@H](C(=O)O)C(C)C)C4)cc2)cc1` [Example 188, (S)-2-(6-(4-(4-Decylbenzamido)phenyl)-1-oxoisoindolin-2-yl)-3-methyl butanoic acid], above 50%. `CC(C)[C@@H](C(=O)O)N1Cc2ccc(-c3ccc(NC(=O)c4ccc(C(F)(F)F)cc4F)cc3)cc2C1=O` [Example 192, (S)-2-(6-(4-(2-Fluoro-4-(trifluoromethyl)benzamido)phenyl)-1-oxoisoindolin-2-yl)-3-methylbutanoic acid]: the inhibition at 1 µM was above 50%. Regarding `CC(C)[C@@H](C(=O)O)N1Cc2ccc(-c3ccc(NC(=O)c4cccc(C(F)(F)F)c4F)cc3)cc2C1=O` [Example 194, (S)-2-(6-(4-(2-Fluoro-3-(trifluoromethyl)benzamido)phenyl)-1-oxoisoindolin-2-yl)-3-methylbutanoic acid], the inhibition at 1 µM was in the range of 10 to 50%. The same measure, in the same setting: with `CC(C)[C@@H](C(=O)O)N1Cc2ccc(-c3ccc(NC(=O)c4ccc(C(F)(F)F)c(F)c4)cc3)cc2C1=O` [Example 196, (S)-2-(6-(4-(3-Fluoro-4-(trifluoromethyl)benzamido)phenyl)-1-oxoisoindolin-2-yl)-3-methylbutanoic acid] the figure was above 50%; with `CC(C)[C@@H](C(=O)O)N1Cc2ccc(-c3ccc(NC(=O)c4ccc(F)cc4C(F)(F)F)cc3)cc2C1=O` [Example 198, (S)-2-(6-(4-(4-Fluoro-2-(trifluoromethyl)benzamido)phenyl)-1-oxoisoindolin-2-yl)-3-methylbutanoic acid], 10 to 50%. `CC(C)[C@@H](C(=O)O)N1Cc2ccc(-c3ccc(NC(=O)c4ccccc4C(F)(F)F)cc3)cc2C1=O` [Example 200, (S)-3-Methyl-2-(1-oxo-6-(4-(2-(trifluoromethyl)benzamido)phenyl)isoindolin-2-yl)butanoic acid]: the inhibition at 1 µM lay in the range of 10 to 50%.

`CCOc1ccccc1C(=O)Nc1ccc(-c2ccc3c(c2)C(=O)N([C@H](C(=O)O)C(C)C)C3)cc1` [Example 202, (S)-2-(6-(4-(2-Ethoxybenzamido)phenyl)-1-oxoisoindolin-2-yl)-3-methylbutanoic acid]: the inhibition at 1 µM was above 50%. On the same count and under the same terms, with `CC(C)[C@@H](C(=O)O)N1Cc2ccc(-c3ccc(NC(=O)c4cccnc4)cc3)cc2C1=O` [Example 207, (S)-3-Methyl-2-(6-(4-(nicotinamido)phenyl)-1-oxoisoindolin-2-yl)butanoic acid] the figure was above 50%. Regarding `CC(C)[C@@H](C(=O)O)N1Cc2ccc(-c3ccc(NC(=O)c4cccnc4Cl)cc3)cc2C1=O` [Example 209, (S)-2-(6-(4-(2-Chloronicotinamido)phenyl)-1-oxoisoindolin-2-yl)-3-methyl butanoic acid], the inhibition at 1 µM is above 50%.

(Values after patent US8748426B2, “Inhibitors of diacylglycerol acyl transferase” (Piramal Enterprises Limited, priority 2009, dated 2014).)
